In US12150995B2, “IRAK degraders and uses thereof” (Kymera Therapeutics, Inc., priority 2020, dated 2024) one finds DC50 data, which are given here for 33 compounds.

The target of this experiment is T1, IRAK4 (Homo sapiens, UniProt Q9NWZ3).
T1 construct: endogenous in cells; host or cells: OCI-LY10
T1 sequence (Q9NWZ3 1-460): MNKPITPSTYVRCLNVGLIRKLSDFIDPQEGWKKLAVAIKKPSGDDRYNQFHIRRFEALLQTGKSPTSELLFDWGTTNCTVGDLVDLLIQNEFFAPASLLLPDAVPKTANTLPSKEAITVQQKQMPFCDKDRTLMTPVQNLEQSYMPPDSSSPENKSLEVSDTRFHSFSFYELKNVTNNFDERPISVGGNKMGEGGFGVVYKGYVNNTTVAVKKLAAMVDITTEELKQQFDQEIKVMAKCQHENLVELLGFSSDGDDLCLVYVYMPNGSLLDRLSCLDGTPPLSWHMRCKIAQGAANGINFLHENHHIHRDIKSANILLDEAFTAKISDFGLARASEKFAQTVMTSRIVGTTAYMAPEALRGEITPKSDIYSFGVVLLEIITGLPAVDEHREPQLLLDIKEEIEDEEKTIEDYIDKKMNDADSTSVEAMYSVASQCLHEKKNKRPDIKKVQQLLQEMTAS
In words: IRAK4 MSD Degradation in OCI-LY10. Format: cell-based. As to conditions: OCI-LY10 cells, Meso Scale Discovery, incubated 4 to 24 hours. Summed up:
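IRAK4 degradation was quantified by Meso Scale electrochemiluminescence (anti-IRAK4 capture and detection antibodies) in lysates of treated OCI-LY10 cells. Compounds were dosed at 8 concentrations (1:3 dilutions, top 1 to 10 μM) for 4 to 24 h; DC50 derived by three-parameter logistic fitting.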

Compound `Cn1c(=O)n(C2CCC(=O)NC2=O)c2cccc(N3CCN(C[C@H]4CC[C@H](n5cc6cc(NC(=O)c7cccc(C(F)(F)F)n7)ccc6n5)CC4)C(C)(C)C3)c21` (stereo partly drawn) [I-324] gave a DC50 of 10 to 50 nM.

Turning to `Cc1cc2nn([C@H]3CC[C@H](CN4CCN(c5cccc6c5n(C5CC5)c(=O)n6C5CCC(=O)NC5=O)CC4)CC3)cc2cc1NC(=O)c1cccc(C(F)(F)F)n1` (stereo partly drawn) [I-304], the 50% degradation concentration (DC50) lay within 10 to 50 nM.

`CC(C)Nc1cc(-n2ccc3cc(F)cnc32)ncc1C(=O)N[C@H]1CC[C@H](CN2CCN(c3cccc4c3n(C)c(=O)n4C3CCC(=O)NC3=O)CC2)CC1` (stereo partly drawn) [I-290] showed a 50% degradation concentration (DC50) of 10 to 50 nM.

Consider `CC(C)Nc1cc(-n2ccc3cc(C#N)cnc32)ncc1C(=O)NC[C@H]1CC[C@H](CN2CCC(c3cccc4c3n(C)c(=O)n4C3CCC(=O)NC3=O)CC2)CC1` (stereo partly drawn) [I-85], for which the 50% degradation concentration (DC50) fell in the range of 50 to 100 nM.

`CN(C(=O)[C@H]1CC[C@H](n2cc3cc(NC(=O)c4cccc(C(F)(F)F)n4)ccc3n2)CC1)C1CCN(c2cccc3c2n(C)c(=O)n3C2CCC(=O)NC2=O)CC1` (stereo partly drawn) [I-186] yielded a DC50 of under 10 nM.

`COc1ccc2c(c1C1CCN(C[C@H]3CC[C@H](n4cc5cc(NC(=O)c6cncc(Cl)c6)ccc5n4)CC3)CC1)n(C)c(=O)n2C1CCC(=O)NC1=O` (stereo partly drawn) [I-116]: the half-maximal degradation concentration (DC50) lay within 100 to 200 nM.

With `COc1cc2nn([C@H]3CC[C@H](CN4CCN(c5ccc(N6CCC(=O)NC6=O)cc5)CC4)CC3)cc2cc1NC(=O)c1cccc(C(F)(F)F)n1` [I-312], the DC50 is over 200 nM.

Regarding `CC(C)Nc1cc(-n2ccc3cc(C#N)cnc32)ncc1C(=O)N[C@H]1CC[C@H](CN2CCN(c3cccc4c(N5CCC(=O)NC5=O)cncc34)CC2)CC1` [I-372], the DC50 was under 10 nM.

Compound `COc1cc2nn([C@H]3CC[C@H](CN4CCC(c5ccc6c(N7CCC(=O)NC7=O)cncc6c5)CC4)CC3)cc2cc1NC(=O)c1cccc(C(F)(F)F)n1` [I-322] showed a DC50 of under 10 nM.

In turn, `O=C1CCC(N2C(=O)c3cccc(NCCC4CC5(C4)CN(C[C@H]4CC[C@H](n6cc7cc(NC(=O)c8cccc(C(F)(F)F)n8)c(OC8CC8)cc7n6)CC4)C5)c3C2=O)C(=O)N1` (stereo partly drawn) [I-2] showed a DC50 of over 200 nM.

The compound `CN(C[C@H]1CC[C@H](n2cc3cc(NC(=O)c4cccc(C(F)(F)F)n4)ncc3n2)CC1)C1CCN(c2cccc3c2n(C)c(=O)n3C2CCC(=O)NC2=O)CC1` (stereo partly drawn) [I-238] gave a DC50 of under 10 nM.

In the case of `CN(CCn1cc2cc(NC(=O)c3cnn4cccnc34)c(F)cc2n1)C1CCN(c2cccc3c2n(C)c(=O)n3C2CCC(=O)NC2=O)CC1` (stereo not drawn) [I-22, N-[2-[2-[[1-[1-(2,6-dioxo-3-piperidyl)-3-methyl-2-oxo-benzimidazol-4-yl]-4-piperidyl]-methyl-amino]ethyl]-6-fluoro-indazol-5-yl]pyrazolo[1,5-a] pyrimidine-3-carboxamide], the 50% degradation concentration (DC50) was over 200 nM.

In the case of `COc1cc2nn([C@H]3CC[C@H](CN4CCC(c5cccc6c(N7CCC(=O)NC7=O)cncc56)CC4)CC3)cc2cc1NC(=O)c1cncc(C#N)c1` [I-121], the half-maximal degradation concentration (DC50) was in the range of 10 to 50 nM.

The compound `Cn1c(=O)n(C2CCC(=O)NC2=O)c2cccc(C3CCN(C[C@H]4CC[C@H](n5cc6cc(NC(=O)c7nc(C(F)(F)F)cs7)ccc6n5)CC4)CC3)c21` (stereo partly drawn) [I-215] came in with a DC50 of under 10 nM.

`COc1ccc2c(c1C1CCN(C[C@H]3CC[C@H](n4cc5cc(NC(=O)c6cccc(C(F)(F)F)n6)ncc5n4)CC3)CC1)n(C)c(=O)n2[C@@H]1CCC(=O)NC1=O` (single isomer, unassigned) [I-274] had a half-maximal degradation concentration (DC50) of 10 to 50 nM.

Compound `CC(C)(O)c1cc2nc([C@H]3CC[C@H](CN4CCO[C@@H](CCCNc5cccc6c5C(=O)N(C5CCC(=O)NC5=O)C6=O)C4)CC3)sc2cc1NC(=O)c1cncc(C#N)c1` (stereo partly drawn) [I-454] showed a 50% degradation concentration (DC50) of over 200 nM.

Regarding `COc1cc2nn([C@H]3CC[C@H](CN4CCN(c5cccc6c(N7CCC(=O)NC7=O)cncc56)CC4)CC3)cc2cc1NC(=O)c1cncc(C(F)(F)F)n1` [I-299], the DC50 is under 10 nM.

Regarding `Cn1c(=O)n(C2CCC(=O)NC2=O)c2cccc(C3CCN(C(=O)[C@H]4CC[C@H](n5cc6cc(NC(=O)c7cccc(C(F)(F)F)n7)ncc6n5)CC4)CC3)c21` (stereo partly drawn) [I-188], the 50% degradation concentration (DC50) was over 200 nM.

Compound `COc1cc2nn([C@H]3CC[C@H](CN4CCC(c5c(OC)ccc6c5n(C)c(=O)n6C5CCC(=O)NC5=O)CC4)CC3)cc2cc1NC(=O)c1cccc(C(F)(F)F)n1` (stereo partly drawn) [I-48] returned a DC50 of under 10 nM.

`Cn1c(=O)n(C2CCC(=O)NC2=O)c2cccc(C3CCN(C[C@H]4C[C@H](n5cc6cc(NC(=O)c7cccc(C(F)(F)F)n7)ccc6n5)C4)CC3)c21` (stereo partly drawn) [I-140] returned a DC50 of 100 to 200 nM.

For the compound `CC(C)(O)c1cc2nc([C@H]3CC[C@H](C(=O)N4CCN(CCNc5cccc6c5C(=O)N(C5CCC(=O)NC5=O)C6=O)CC4)CC3)sc2cc1NC(=O)c1cccc(C#N)n1` (stereo partly drawn) [I-434], the DC50 was in the range of 50 to 100 nM.

The compound `CN(C[C@H]1CC[C@H](n2cc3cc(NC(=O)c4cncc(C#N)c4)c(OC(F)(F)F)cc3n2)CC1)C1CCN(c2cccc3c2n(C)c(=O)n3C2CCC(=O)NC2=O)CC1` (stereo partly drawn) [I-249] came in with a DC50 of over 200 nM.

For the compound `COc1cc(NC(=O)c2cccc(C(F)(F)F)n2)cc2cn([C@H]3CC[C@H](CN4CCC(c5cccc6c(N7CCC(=O)NC7=O)cncc56)CC4)CC3)nc12` [I-221], the 50% degradation concentration (DC50) was under 10 nM.

`C[C@@H]1CN(c2cccc3c2n(C)c(=O)n3C2CCC(=O)NC2=O)CCN1C[C@H]1CC[C@H](n2cc3cc(NC(=O)c4cccc(C(F)(F)F)n4)ccc3n2)CC1` (stereo partly drawn) [I-163] displayed a DC50 of under 10 nM.

As for `Cc1cc2nn([C@H]3CC[C@H](CN4CCN(c5cccc6c(N7CCC(=O)NC7=O)cncc56)CC4)CC3)cc2cc1NC(=O)c1cccc(C(F)(F)F)n1` [I-261], the DC50 was in the range of 10 to 50 nM.

`COc1cc2nn([C@H]3CC[C@H](CN4C5CC4CN(c4cccc6c4n(C)c(=O)n6C4CCC(=O)NC4=O)C5)CC3)cc2cc1NC(=O)c1cncc(C#N)c1` (stereo partly drawn) [I-258] had a DC50 of over 200 nM.

`Cn1c(=O)n(C2CCC(=O)NC2=O)c2cccc(N3CCN(C[C@H]4CC[C@H](n5cc6cc(NC(=O)c7cccc(C(F)(F)F)n7)c(S(C)(=O)=O)cc6n5)CC4)CC3)c21` (stereo partly drawn) [I-422] returned a DC50 of under 10 nM.

`COc1cc2nn([C@H]3CC[C@H](CN4C[C@H]5C[C@@H]4CN5c4cccc5c(N6CCC(=O)NC6=O)cncc45)CC3)cc2cc1NC(=O)c1cccc(C(F)(F)F)n1` [I-155]: the 50% degradation concentration (DC50) is 10 to 50 nM.

For the compound `COc1cc2nc([C@H]3CC[C@H](CN4CC5(CC(CCNc6cccc7c6C(=O)N(C6CCC(=O)NC6=O)C7=O)C5)C4)CC3)n(C)c2cc1NC(=O)c1cccc(C(F)(F)F)n1` (stereo partly drawn) [I-3], the DC50 lay within 50 to 100 nM.

Compound `Cn1c(=O)n(C2CCC(=O)NC2=O)c2cccc(N3CCN(C[C@H]4CC[C@H](n5cc6cc7nc(-c8cccc(C(F)(F)F)n8)oc(=O)c7cc6n5)CC4)CC3)c21` (stereo partly drawn) [I-406, 3-[3-methyl-2-oxo-4-[4-[[4-[8-oxo-6-[6-(trifluoromethyl)-2-pyridyl]pyrazolo[3,4-g] [3,1]benzoxazin-2-yl]cyclohexyl]methyl]piperazin-1-yl]benzimidazol-1-yl]piperidine-2,6-dione] gave a DC50 of 10 to 50 nM.

Turning to `CC(C)Nc1cc(-n2ccc3cc(C#N)cnc32)ncc1-c1cn([C@H]2CC[C@H](CN3CCN(c4cccc5c(N6CCC(=O)NC6=O)cncc45)CC3)CC2)nn1` [I-197], the DC50 is under 10 nM.

In the case of `COc1cc2nn([C@H]3CC[C@H](CN4CCC(c5cccc6c5n(C)c(=O)n6C5CCC(=O)NC5=O)CC4)CC3)cc2cc1NC(=O)c1cnc(C#N)c(Cl)c1` (stereo partly drawn) [I-136], the DC50 is over 200 nM.

As for `COc1cc2nn([C@H]3CC[C@H](CN4CCC(c5ccc6c(c5)n(C)c(=O)n6C5CCC(=O)NC5=O)CC4)CC3)cc2cc1NC(=O)c1cncc(C#N)c1` (stereo partly drawn) [I-169], the DC50 was over 200 nM.
